Here are results for three compounds from patent US7423051B2, “2,6-diaminopyridine derivatives” (Hoffmann-La Roche Inc., priority 2004, dated 2008).

The test system of one experiment is HCT116 cell line. As to the kind of experiment: Tetrazolium dye proliferation assay (MTT assay). The experiment is classed as cell-based. Particulars: HCT-116; human colon tumor cell line HCT116, MTT assay. As for the experimental part:
Cell Based Assays (Tetrazolium dye proliferation assay)(“MTT Assay”)
Proliferation was evaluated by the tetrazolium dye assay according to the procedure of Denizot and Lang (Denizot, F. and Lang, R. J Immunol Methods 1986, 89, 271-277). The cell line used was HCT116, a colorectal carcinoma cell line obtained from the American Type Cell Culture Collection (ATCC; Rockville, Md.). The cells were grown in McCoy's 5A medium supplemented with 10% FCS and L-glutamine.
Cells were plated at the appropriate seeding density to give logarithmic growth over the course of the assay in a 96-well tissue culture plate. Plates were incubated overnight at 37° C. in a humidified incubator with 5% CO2. The next day, test compounds were serially diluted to four times the final concentration in the appropriate medium containing 1.2% DMSO. One-fourth final volume of each dilution was added in duplicate to the plates containing cells. The same volume of 1.2% DMSO in medium was added to a row of “control wells” such that the final concentration of DMSO in each well was 0.3%. Wells to which no cells were added served as the “blank.” Wells to which no inhibitor was added served as “no inhibitor control.” The plates were returned to the incubator, and at set time points (determined by their growth curves) plates were analyzed as described below.
3-(4,5-dimethylthiazole-2-yl)-2,5-diphenyl-2H-tetrazolium bromide (thiazolyl blue; MTT; Sigma) was added to each well to yield a final concentration of 1 mg/ml. Plates were returned to the incubator for 2.5-3 hours at 37° C. […] Absorbance readings were taken in a microtiter plate reader (Dynatech and Molecular Devices plate readers were used interchangeably) at a wavelength of 570 nm with a 650 nm reference. Percent inhibition (% INH) is calculated by subtracting the absorbance of the blank well from all wells, then subtracting the ratio of the average absorbance of each test duplicate (SAVE) by the average of the controls (CAVE) from 1.00. […]
(In general: Tetrazolium assays rely on reduction of a dye to a coloured formazan, in cell work by metabolically active cells.)

The target of another experiment is T1, human cyclin D1-CDK4 (Homo sapiens, UniProt P11802).
T1 construct: GST (N); made in house; host or cells: High Five insect cells (baculovirus)
As to the kind of experiment: CDK4 HTRF kinase assay (Ki measurement). It counts as biochemical. Particulars: Rb substrate, ATP at 3x Km, Ki=IC50/(1+S/Km). An excerpt:
(§1) Using recombinant human cyclin B-CDK1, human cyclin E-CDK2 or human cyclin D1-CDK4 complexes. GST-cyclinE (GST-cycE), CDK2, GST-cyclinB (GST-cycB), CDK1, GST-CDK4 and cyclin D1 (cycD1) cDNA clones in baculovirus vectors were provided by Dr. W. Harper at the Baylor College of Medicine, Houston, Tex. Proteins were co-expressed in High Five™ insect cells and the complex was purified on glutathione Sepharose resin (Pharmacia, Piscataway, N.J.) as previously described (Harper, J. W. et al. Cell 1993, 75, 805-816). A 6×-Histidine tagged truncated form of retinoblastoma (Rb) protein (amino acid 386-928) was used as the substrate for the cycD1-CDK4, cycB-CDK1 and the cycE-CDK2 assays (the expression plasmid was provided by Dr. Veronica Sullivan, Department of Molecular Virology, Roche Research Centre, Welwyn Garden City, United Kingdom). The Rb protein is a natural substrate for phosphorylation by CDK4, CDK2 and CDK1 (see Herwig and Strauss Eur. J. Biochem. Vol. 246 (1997) pp.581-601 and the references cited therein).
(§2) The expression of the 62Kd protein was under the control of an IPTG inducible promoter in an M15 E. coli strain. […] Purified Rb fusion protein stocks were quantitated for protein concentration, aliquoted, and stored at −70° C.
(§3) Using the protein constructs described above, CDK1, CDK2, and CDK4 HTRF assays were set up. These were done in 96-well format and read in 384-well plate format. […]
In the CDK4 assay, test compounds were diluted to 3× their final concentrations in 25 mM Hepes, pH 7.0, 6.25 mM MgCl2, 1.5 mM DTT, 135 μM ATP. […] The plates were read using either ViewLux or Victor V readers (PerkinElmer Life Sciences) using an excitation wavelength of 340 nm and dual emission wavelengths of 615 nm and 665 nm. […] For ATP competitive inhibitors, the Ki values were calculated according to the following equation: Ki=IC50/(1+S/Km) where S refers to the substrate concentration (ATP) and Km refers to the Michaelis-Menten constant for the ATP.
(Time-resolved FRET reads energy transfer from a long-lived donor to a nearby acceptor.)

For the next experiment, the target named is T2, human cyclin E-CDK2 (Homo sapiens, UniProt P24941).
T2 construct: made in house; host or cells: High Five insect cells (baculovirus)
As to the kind of experiment: CDK2 HTRF kinase assay (Ki measurement). It counts as biochemical. Particulars: Rb substrate, ATP at 3x Km, Ki=IC50/(1+S/Km).
From the text: as §1, §2, §3
In the CDK4 assay, test compounds were diluted to 3× their final concentrations in 25 mM Hepes, pH 7.0, 6.25 mM MgCl2, 1.5 mM DTT, 135 μM ATP. […] The plates were read using either ViewLux or Victor V readers (PerkinElmer Life Sciences) using an excitation wavelength of 340 nm and dual emission wavelengths of 615 nm and 665 nm. […] For ATP competitive inhibitors, the Ki values were calculated according to the following equation: Ki=IC50/(1+S/Km) where S refers to the substrate concentration (ATP) and Km refers to the Michaelis-Menten constant for the ATP. […]

Another experiment addresses T3, human cyclin B-CDK1 (Homo sapiens, UniProt P06493).
T3 construct: made in house; host or cells: High Five insect cells (baculovirus)
As to the kind of experiment: CDK1 HTRF kinase assay (Ki measurement). The experiment is classed as biochemical. Particulars: Rb substrate, ATP at 3x Km, Ki=IC50/(1+S/Km).
From the text: Using recombinant human cyclin B-CDK1, human cyclin E-CDK2 or human cyclin D1-CDK4 complexes. GST-cyclinE (GST-cycE), CDK2, GST-cyclinB (GST-cycB), CDK1, GST-CDK4 and cyclin D1 (cycD1) cDNA clones in baculovirus vectors were provided by Dr. W. Harper at the Baylor College of Medicine, Houston, Tex. Proteins were co-expressed in High Five™ insect cells and the complex was purified on glutathione Sepharose resin (Pharmacia, Piscataway, N.J.) as previously described (Harper, J. W. et al. Cell 1993, 75, 805-816). […]
as §2, §3
In the CDK4 assay, test compounds were diluted to 3× their final concentrations in 25 mM Hepes, pH 7.0, 6.25 mM MgCl2, 1.5 mM DTT, 135 μM ATP. […] The plates were read using either ViewLux or Victor V readers (PerkinElmer Life Sciences) using an excitation wavelength of 340 nm and dual emission wavelengths of 615 nm and 665 nm. […]

SMILES strings stand for the structures. Read-outs that look alike come from different tables or passages of the source.

T1 sequence (P11802 whole entry): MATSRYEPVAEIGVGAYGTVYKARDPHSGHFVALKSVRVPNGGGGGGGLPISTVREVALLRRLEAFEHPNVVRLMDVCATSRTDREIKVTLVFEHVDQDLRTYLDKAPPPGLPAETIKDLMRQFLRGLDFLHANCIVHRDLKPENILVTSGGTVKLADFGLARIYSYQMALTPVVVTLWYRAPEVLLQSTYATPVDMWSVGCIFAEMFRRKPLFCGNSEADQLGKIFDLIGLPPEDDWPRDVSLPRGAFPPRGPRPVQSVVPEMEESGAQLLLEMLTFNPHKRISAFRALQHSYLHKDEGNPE
T1 sequence (P24385 whole entry partner): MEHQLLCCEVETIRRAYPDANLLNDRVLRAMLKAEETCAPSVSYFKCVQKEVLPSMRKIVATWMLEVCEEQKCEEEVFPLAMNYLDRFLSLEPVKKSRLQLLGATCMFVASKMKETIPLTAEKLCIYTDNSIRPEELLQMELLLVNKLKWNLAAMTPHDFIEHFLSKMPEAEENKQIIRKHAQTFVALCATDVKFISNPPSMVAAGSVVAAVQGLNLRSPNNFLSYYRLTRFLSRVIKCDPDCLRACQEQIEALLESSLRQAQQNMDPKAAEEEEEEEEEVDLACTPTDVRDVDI
T3 sequence (P06493 whole entry): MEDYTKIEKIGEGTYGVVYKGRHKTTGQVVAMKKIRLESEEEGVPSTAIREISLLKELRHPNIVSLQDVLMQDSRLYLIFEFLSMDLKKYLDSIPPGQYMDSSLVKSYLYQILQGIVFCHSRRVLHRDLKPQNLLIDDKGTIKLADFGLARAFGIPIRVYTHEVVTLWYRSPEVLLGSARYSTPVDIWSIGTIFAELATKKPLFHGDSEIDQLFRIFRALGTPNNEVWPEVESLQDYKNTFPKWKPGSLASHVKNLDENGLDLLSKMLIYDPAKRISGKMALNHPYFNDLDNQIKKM
T3 sequence (P14635 whole entry partner): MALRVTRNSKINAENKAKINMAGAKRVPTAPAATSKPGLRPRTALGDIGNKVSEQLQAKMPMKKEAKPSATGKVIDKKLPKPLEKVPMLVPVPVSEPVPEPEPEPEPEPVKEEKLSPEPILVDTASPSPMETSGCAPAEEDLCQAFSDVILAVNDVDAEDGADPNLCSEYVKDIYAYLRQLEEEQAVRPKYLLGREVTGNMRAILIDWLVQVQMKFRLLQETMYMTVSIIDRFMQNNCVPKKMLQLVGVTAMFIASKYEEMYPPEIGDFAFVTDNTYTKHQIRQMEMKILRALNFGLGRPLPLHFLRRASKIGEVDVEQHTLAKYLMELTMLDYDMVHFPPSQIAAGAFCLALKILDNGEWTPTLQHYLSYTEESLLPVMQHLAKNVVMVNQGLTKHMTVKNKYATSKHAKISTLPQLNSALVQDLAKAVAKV

A word on the IC50: it is the midpoint of a concentration-inhibition curve. As a reminder, the Ki is a dissociation constant, usually derived from enzyme kinetics or from competition with a known ligand. In turn, `COc1ccc(F)cc1C(=O)c1ccc(NC2CCN(S(C)(=O)=O)CC2)nc1N` [Example 23, [2-Amino-6-(1-methanesulfonyl-piperidin-4-ylamino)-pyridin-3-yl]-(5-fluoro-2-methoxy-phenyl)-methanone] returned an IC50 in the experiment with HCT116 cell line of 9000 nM. In addition, the Ki came to 40 nM at human cyclin D1-CDK4 and 98 nM on human cyclin E-CDK2 (read-out: Ki for cdk2).

`COc1ccc(F)c(F)c1C(=O)c1ccc(NC2CCN(S(C)(=O)=O)CC2)nc1N` [Example 40, [2-Amino-6-(1-methanesulfonyl-piperidin-4-ylamino)-pyridin-3-yl]-(2,3-difluoro-6-methoxy-phenyl)-methanone] had an IC50 in the experiment with HCT116 cell line of 2600 nM. The Ki at human cyclin B-CDK1 is 60 nM; at human cyclin D1-CDK4 it was 17 nM; on human cyclin E-CDK2 (read-out: Ki for cdk2 (unit inferred)), 54 nM.

In the case of `COc1cc(Cl)c(F)cc1C(=O)c1ccc(NC2CCN(S(C)(=O)=O)CC2)nc1N` [Example 49, [2-Amino-6-(1-methanesulfonyl-piperidin-4-ylamino)-pyridin-3-yl]-(4-chloro-5-fluoro-2-methoxy-phenyl)-methanone], in the experiment on HCT116 cell line, the IC50 is 3000 nM. In addition, the Ki was 154 nM at human cyclin B-CDK1, 8 nM on human cyclin D1-CDK4 and 39 nM on human cyclin E-CDK2 (read-out: Ki for cdk2).
